Laboratory results: the supplement of paper PMC10307832

Legend:
Assay in all cases: relative viability (nuclei count vs DMSO), 5 days (fraction); higher = more cells survive
[1] = compound: CN1C=C(C2=CC=CC=C21)/C=C\3/C4=C(C=CC=N4)NC3=O + C[C@@H](Oc1cc(-c2cnn(C3CCNCC3)c2)cnc1N)c1c(Cl)ccc(F)c1Cl [Crizotinib] (partner 1 µM)
Summary of the method: (§1)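 Relative viability is defined as nuclei in treated wells over nuclei in vehicle wells. Duplicate plates were run and medians reported. Lung cancer cell lines in 1536-well plates were dosed by pin tool one day after seeding, with one drug or with a fixed anchor-drug dose plus five library-drug doses (not always all listed) in √10 steps, and nuclei were counted after 5 days.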

[2] = compound: CC(=O)Nc1cccc(-n2c(=O)n(C3CC3)c(=O)c3c(Nc4ccc(I)cc4F)n(C)c(=O)c(C)c32)c1 [Trametinib] + Nc1nc2[nH]cc(CCc3ccc(C(=O)N[C@@H](CCC(=O)O)C(=O)O)cc3)c2c(=O)[nH]1 [Pemetrexed] (partner 0.2 µM)
Summary of the method: as §1

[3] = compound: CN1C=C(C2=CC=CC=C21)/C=C\3/C4=C(C=CC=N4)NC3=O + CCNC(=O)c1noc(-c2cc(C(C)C)c(O)cc2O)c1-c1ccc(CN2CCOCC2)cc1 [Luminespib] (partner 0.01 µM)
Summary of the method: as §1

[4] = compound: CC(=O)Nc1cccc(-n2c(=O)n(C3CC3)c(=O)c3c(Nc4ccc(I)cc4F)n(C)c(=O)c(C)c32)c1 [Trametinib] + Cc1nc(Nc2ncc(C(=O)Nc3c(C)cccc3Cl)s2)cc(N2CCN(CCO)CC2)n1 [Dasatinib] (partner 0.075 µM)
Summary of the method: as §1

Cell Line | relative viability ([1]; first compound 0.02 µM) | relative viability ([1]; first compound 0.06325 µM) | relative viability ([1]; first compound 0.2 µM) | relative viability ([1]; first compound 0.6325 µM) | relative viability ([1]; first compound 2 µM) | relative viability ([2]; first compound 0.0025 µM) | relative viability ([2]; first compound 0.007906 µM) | relative viability ([2]; first compound 0.025 µM) | relative viability ([2]; first compound 0.07906 µM) | relative viability ([2]; first compound 0.25 µM) | relative viability ([3]; first compound 0.02 µM) | relative viability ([3]; first compound 0.06325 µM) | relative viability ([3]; first compound 0.2 µM) | relative viability ([3]; first compound 0.6325 µM) | relative viability ([3]; first compound 2 µM) | relative viability ([4]; first compound 0.0025 µM) | relative viability ([4]; first compound 0.007906 µM) | relative viability ([4]; first compound 0.025 µM) | relative viability ([4]; first compound 0.07906 µM) | relative viability ([4]; first compound 0.25 µM)
LU99A | 0.522 | 0.479 | 0.607 | 0.568 | 0.603 | 0.206 | 0.208 | 0.203 | 0.193 | 0.206 | 0.265 | 0.255 | 0.275 | 0.355 | 0.28 | 0.529 | 0.535 | 0.376 | 0.363 | 0.317
HOP-62 | 0.902 | 0.938 | 0.789 | 0.918 | 1.01 | 0.407 | 0.31 | 0.345 | 0.308 | 0.183 | 0.783 | 0.986 | 0.802 | 0.946 | 0.957 | 0.681 | 0.43 | 0.249 | 0.206 | 0.212
HCC-15 | 0.805 | 0.795 | 0.887 | 0.897 | 0.955 | 0.21 | 0.221 | 0.227 | 0.186 | 0.221 | 0.172 | 0.344 | 0.303 | 0.353 | 0.36 | 0.287 | 0.214 | 0.163 | 0.135 | 0.121
HARA | 0.975 | 0.958 | 0.933 | 1.02 | 1.09 | 0.224 | 0.226 | 0.254 | 0.212 | 0.219 | 0.347 | 0.951 |  | 0.558 | 0.676 | 0.225 | 0.275 | 0.367 | 0.18 | 0.185
SK-MES-1 | 0.972 | 0.84 | 1.03 | 0.976 | 0.967 | 0.916 | 0.736 | 0.664 | 0.428 | 0.407 | 0.777 | 0.557 | 0.62 | 0.684 | 0.699 | 0.324 | 0.313 | 0.208 | 0.171 | 0.156
NCI-H1355 | 0.909 | 0.97 | 0.992 | 0.675 | 0.819 | 1.03 | 0.946 | 0.516 | 0.717 | 0.615 | 0.65 | 0.623 | 0.669 | 0.533 | 0.629 | 0.607 | 0.528 | 0.337 | 0.373 | 0.326
NCI-H520 | 0.569 | 0.828 | 0.885 | 0.773 | 0.807 | 0.645 | 0.69 | 0.667 | 0.648 | 0.533 | 0.204 | 0.24 | 0.217 | 0.211 | 0.229 | 0.281 | 0.225 | 0.288 | 0.282 | 0.176
NCI-H838 | 0.615 | 0.657 | 0.761 | 0.707 | 0.833 | 0.245 | 0.212 | 0.229 | 0.217 | 0.213 | 0.314 | 0.336 | 0.345 | 0.269 | 0.325 | 0.251 | 0.322 | 0.214 | 0.27 | 0.249
